Consider 56 molecules from patent publication US8431704B2, “Quinoline or isoquinoline substituted P2X7 antagonists” (Janssen Pharmaceutica NV, priority 2008, dated 2013).

Structures are written as SMILES.

The target of the assay is T1, hP2X7 (Homo sapiens, UniProt Q99572).
T1 construct: expressed in transfected cells; host or cells: 1321N1 astrocytoma cells
T1 sequence (Q99572 1-595): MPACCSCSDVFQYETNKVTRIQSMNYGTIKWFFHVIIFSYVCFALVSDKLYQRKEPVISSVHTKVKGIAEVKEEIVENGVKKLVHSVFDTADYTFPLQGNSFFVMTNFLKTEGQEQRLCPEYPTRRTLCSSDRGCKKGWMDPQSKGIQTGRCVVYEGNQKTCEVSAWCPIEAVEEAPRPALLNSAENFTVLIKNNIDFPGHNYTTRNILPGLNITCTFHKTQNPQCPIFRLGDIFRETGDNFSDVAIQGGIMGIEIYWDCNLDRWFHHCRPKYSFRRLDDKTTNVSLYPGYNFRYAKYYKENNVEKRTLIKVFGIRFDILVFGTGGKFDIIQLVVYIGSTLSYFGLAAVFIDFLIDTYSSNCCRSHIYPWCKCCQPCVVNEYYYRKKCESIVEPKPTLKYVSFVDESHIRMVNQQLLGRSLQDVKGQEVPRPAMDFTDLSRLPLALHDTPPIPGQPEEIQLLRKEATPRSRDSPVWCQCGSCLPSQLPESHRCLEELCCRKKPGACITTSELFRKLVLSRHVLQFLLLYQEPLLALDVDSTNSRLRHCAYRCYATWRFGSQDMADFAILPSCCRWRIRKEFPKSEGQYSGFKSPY
The experiment in a line: P2X7 antagonism: ligand-induced Ca2+ flux in 1321N1 astrocytoma cells overexpressing hP2X7. The format is cell-based. The note with it: pIC50 = -log(IC50), read-out: hP2RX7pIC50 (mean pIC50 values) (converted). As for the experimental part: Extracellular binding of ATP to P2X7 that is expressed in the cell-membrane opens the ligand gated cation channel and allows Ca^2+ entry into the cell. This ligand-induced Ca^2+ flux was measured in 1321N1 astrocytoma cells overexpressing hP2X7 for the compounds of the present invention.
The calcium assay kit used (Molecular Devices, R8090), provides a Ca^2+ sensitive dye together with a quenching dye. However, no specifications are given by the manufacturer. The kit most likely consists of a membrane permeable acetoxymethyl (AM) ester of a fluorescent Ca^2+ indicator, such as fluo-4 or fluo-3. Upon cellular uptake, the AM esters get cleaved by esterases, liberating the Ca^2+-sensitive dye which can then bind calcium. The dyes have an absorption spectrum compatible with excitation at 488 nm by argon laser sources and a large fluorescence intensity increase in response to Ca^2+ binding without an accompanying spectral shift. Emission wavelength is in the range of 510-560 nm.
The fluorescence, and thus the changes in intracellular [Ca^2+] in the 1321N1 cells was monitored in time before and after addition of the agonist. The effect of the antagonist was measured as % control and as IC50.
A general note: Calcium assays in cells follow changes in intracellular calcium, usually with a dye or a luminescent sensor.

On to `CCOc1ncc(C(CNC(=O)c2cccc3nc(NCC4CC4)ccc23)N2CCOCC2)cn1` (centres unmarked) [Compound 243], for which the IC50 was 50.1 nM. The value for `O=C(NCC(c1cnc(C(F)(F)F)nc1)N1CCCOCC1)c1cccc2nc(NCCO)ccc12` (centres unmarked) [Compound 89] was 85.1 nM; that for `CN(C)c1ncc(C(CNC(=O)c2cccc3nc(NCC4CC4)ccc23)N2CCC(F)(F)CC2)cn1` (centres unmarked) [Compound 266] was 50.1 nM.

On to `CC(C)Oc1ncc(C(CNC(=O)c2cccc3nc(NCC4CC4)ccc23)N2CCOCC2)cn1` (centres unmarked) [Compound 227], for which the IC50 is 33.1 nM. As for `CC(=O)N1CCN(c2ncc(C(CNC(=O)c3cccc4nc(N5CCCC5)ccc34)N3CCC(F)(F)CC3)cn2)CC1` (centres unmarked) [Compound 222], the IC50 is 66.1 nM.

For the molecule `O=C(NCC(c1ccc(C(F)(F)F)nc1)N1CCOCC1)c1cccc2ncccc12` (centres unmarked) [Compound 31], the IC50 was 107 nM. The value for `CC(C)CN1CCN(c2ccc3c(C(=O)NCC(c4cnc(C(F)(F)F)nc4)N4CCOCC4)cccc3n2)CC1` (centres unmarked) [Compound 280] was 95.5 nM; that for `O=C(NCC(c1cnc(OC2CCC2)nc1)N1CCC(F)(F)CC1)c1cccc2nc(N3CCOCC3)ccc12` (centres unmarked) [Compound 239] was 53.7 nM. The value for `O=C(NCC(c1cncnc1)N1CCC(F)(F)CC1)c1cccc2nc(N3CCCC3)ccc12` (centres unmarked) [Compound 208] was 45.7 nM; that for `CCc1ncc(C(CNC(=O)c2cccc3nc(N4CCN(C(C)C)CC4)ccc23)N2CCC(F)(F)CC2)cn1` (centres unmarked) [Compound 292] was 115 nM; that for `O=C(NCC(c1cnc(C(F)(F)F)nc1)N1CCCOCC1)c1cccc2nc(N3CCNCC3)ccc12` (centres unmarked) [Compound 128] was 46.8 nM. In the case of `O=C(NCC(c1cnc(C2CCCC2)nc1)N1CCC(F)(F)CC1)c1cccc2nc(N3CCOCC3)ccc12` (centres unmarked) [Compound 249] it was 51.3 nM; in that of `O=C(NCC(c1cnc(OC2CCC2)nc1)N1CCC(F)(F)CC1)c1cccc2nc(NCC3CC3)ccc12` (centres unmarked) [Compound 294], 67.6 nM; in that of `O=C(NCC(c1cnc(C(F)(F)F)nc1)N1CCCC1)c1cccc2ncccc12` (centres unmarked) [Compound 45], 955 nM. `Cc1ncc(C(CNC(=O)c2cccc3nc(N4CCN(C(C)C)CC4)ccc23)N2CCOCC2)cn1` (centres unmarked) [Compound 118]: the IC50 is 162 nM. In the case of `CC(C)N1CCN(c2ccc3c(C(=O)NCC(c4cnc(-c5ccccc5)nc4)N4CCC(F)(F)CC4)cccc3n2)CC1` (centres unmarked) [Compound 201] it was 115 nM. In the case of `O=C(NCC(c1cnc(C(F)(F)F)nc1)N1CCOCC1)c1cccc2nc(N3CCC(O)C3)ccc12` (centres unmarked) [Compound 172] it was 145 nM.

In the case of `CC(C)c1ncc(C(CNC(=O)c2cccc3nc(N4CCN(C(C)C)CC4)ccc23)N2CCOCC2)cn1` (centres unmarked) [Compound 288], the IC50 is 135 nM. The value for `O=C(NCC(c1cnc(N2CCNCC2)nc1)N1CCC(F)(F)CC1)c1cccc2nc(NC3CC3)ccc12` (centres unmarked) [Compound 202] was 115 nM; that for `CN(C)c1ncc(C(CNC(=O)c2cccc3nc(N4CCCC4)ccc23)N2CCC(F)(F)CC2)cn1` (centres unmarked) [Compound 206] was 105 nM.

As for `CC(C)N1CCN(c2ccc3c(C(=O)NCC(c4cnc(OCC5CC5)nc4)N4CCC(F)(F)CC4)cccc3n2)CC1` (centres unmarked) [Compound 291], the IC50 is 46.8 nM. `O=C(NCC(c1cncnc1)N1CCC(F)(F)CC1)c1cccc2nc(NCC3CC3)ccc12` (centres unmarked) [Compound 211]: the IC50 is 79.4 nM. The value for `O=C(NCC(c1cnc(N2CCCC2)nc1)N1CCOCC1)c1cccc2nc(N3CCCC3)ccc12` (centres unmarked) [Compound 219] was 126 nM; that for `O=C(NCC(c1cnc(OCC2CC2)nc1)N1CCC(F)(F)CC1)c1cccc2nc(NC3CC3)ccc12` (centres unmarked) [Compound 247] was 20.9 nM.

In the case of `O=C(NCC(c1cnc(C2CCCC2)nc1)N1CCOCC1)c1cccc2nc(N3CCOCC3)ccc12` (centres unmarked) [Compound 314], the IC50 was 151 nM. For the molecule `CC1(C)CCN(c2ccc3c(C(=O)NCC(c4cnc(C(F)(F)F)nc4)N4CCOCC4)cccc3n2)CC1` (centres unmarked) [Compound 273], the IC50 was 112 nM. The value for `CC(C)N1CCN(c2ccc3c(C(=O)NCC(c4cnc(N5CCOCC5)nc4)N4CCC(F)(F)CC4)cccc3n2)CC1` (centres unmarked) [Compound 203] was 67.6 nM; that for `O=C(NCC(c1cnc(OCC2CC2)nc1)N1CCC(F)(F)CC1)c1cccc2nc(NCC3CC3)ccc12` (centres unmarked) [Compound 234] was 26.9 nM; that for `CCN1CCN(c2ccc3c(C(=O)NCC(c4cnc(C)nc4)N4CCOCC4)cccc3n2)CC1` (centres unmarked) [Compound 116] was 186 nM. Regarding `CN1CCN(c2ccc3c(C(=O)NCC(c4cnc(C(F)(F)F)nc4)N4CCOCC4)cccc3n2)CC1` (centres unmarked) [Compound 198], the IC50 was 77.6 nM. For `Nc1ncc(C(CNC(=O)c2cccc3nc(N4CCCC4)ccc23)N2CCC(F)(F)CC2)cn1` (centres unmarked) [Compound 226], the IC50 was 162 nM. In the case of `O=C(NCC(c1cnc(C(F)(F)F)nc1)N1CCCOCC1)c1cccc2nc(N3CCOCC3)ccc12` (centres unmarked) [Compound 87] it was 44.7 nM. The value for `CC(C)N1CCN(c2ccc3c(C(=O)NCC(c4cncnc4)N4CCC(F)(F)CC4)cccc3n2)CC1` (centres unmarked) [Compound 297] was 32.4 nM. The value for `O=C(NCC(c1cnc(C(F)(F)F)nc1)N1CCOCC1)c1cccc2nc(N3CCCC3)ccc12` (centres unmarked) [Compound 162] was 45.7 nM. In the case of `O=C(NCC(c1cnc(N2CCNCC2)nc1)N1CCC(F)(F)CC1)c1cccc2nc(N3CCCC3)ccc12` (centres unmarked) [Compound 301], the IC50 is 166 nM. In the case of `CN(C)c1ncc(C(CNC(=O)c2cccc3nc(NC4CC4)ccc23)N2CCC(F)(F)CC2)cn1` (centres unmarked) [Compound 195] it was 72.4 nM; in that of `CCc1ncc(C(CNC(=O)c2cccc3nc(NCC4CC4)ccc23)N2CCC(F)(F)CC2)cn1` (centres unmarked) [Compound 217], 47.9 nM.

As for `O=C(NCC(c1cccnc1Cl)N1CCC(F)(F)CC1)c1cccc2ncccc12` (centres unmarked) [Compound 3], the IC50 was 3630 nM. Turning to `O=C(NCC(c1cnc(N2CCCC2)nc1)N1CCOCC1)c1cccc2nc(NC3CC3)ccc12` (centres unmarked) [Compound 259], the IC50 is 97.7 nM. The value for `CCc1ncc(C(CNC(=O)c2cccc3nc(NCC4CC4)ccc23)N2CCOCC2)cn1` (centres unmarked) [Compound 296] was 123 nM; that for `O=C(NCC(c1cnc(C(F)(F)F)nc1)N1CCC(F)(F)CC1)c1cccc2nc(NCC3CC3)ccc12` (centres unmarked) [Compound 42] was 38 nM. In the case of `CC(C)Oc1ncc(C(CNC(=O)c2cccc3nc(N4CCOCC4)ccc23)N2CCOCC2)cn1` (centres unmarked) [Compound 241] it was 117 nM; in that of `CCOc1ncc(C(CNC(=O)c2cccc3nc(NC4CC4)ccc23)N2CCC(F)(F)CC2)cn1` (centres unmarked) [Compound 254], 29.5 nM.

`CCc1ncc(C(CNC(=O)c2cccc3nc(NC4CC4)ccc23)N2CCOCC2)cn1` (centres unmarked) [Compound 207]: the IC50 was 138 nM.

As for `O=C(NCC(c1cnc(N2CCOCC2)nc1)N1CCC(F)(F)CC1)c1cccc2nc(NCC3CC3)ccc12` (centres unmarked) [Compound 252], the IC50 was 49 nM. In the case of `O=C(NCC(c1cnc(C(F)(F)F)nc1)N1CCOCC1)c1cccc2nc(NCC3CCCC3)ccc12` (centres unmarked) [Compound 275], the IC50 was 70.8 nM. In the case of `O=C(NCC(c1cnc(C(F)(F)F)nc1)N1CCOCC1)c1cccc2nc(N3CCCOCC3)ccc12` (centres unmarked) [Compound 178] it was 91.2 nM; in that of `Cc1ncc(C(CNC(=O)c2cccc3nc(N4CCCCC4)ccc23)N2CCOCC2)cn1` (centres unmarked) [Compound 98], 52.5 nM; in that of `O=C(NCC(c1cnc(C(F)(F)F)nc1)N1CCCC(F)(F)C1)c1cccc2nc(N3CCNCC3)ccc12` (centres unmarked) [Compound 127], 14.1 nM. In the case of `CCOc1ncc(C(CNC(=O)c2cccc3nc(N4CCCC4)ccc23)N2CCC(F)(F)CC2)cn1` (centres unmarked) [Compound 212] it was 41.7 nM; in that of `CC(C)N1CCN(c2ccc3c(C(=O)NCC(c4cnc(N5CCCC5)nc4)N4CCC(F)(F)CC4)cccc3n2)CC1` (centres unmarked) [Compound 215], 174 nM; in that of `O=C(NCC(c1cnc(C2CCCC2)nc1)N1CCC(F)(F)CC1)c1cccc2nc(N3CCCC3)ccc12` (centres unmarked) [Compound 307], 45.7 nM. On to `CCOc1ccc2c(C(=O)NCC(c3cnc(C)nc3)N3CCOCC3)cccc2n1` (centres unmarked) [Compound 121], for which the IC50 was 251 nM. The value for `O=C(NCC(c1cnc(C2CCCC2)nc1)N1CCC(F)(F)CC1)c1cccc2nc(NC3CC3)ccc12` (centres unmarked) [Compound 238] was 38.9 nM. The value for `CCOc1ncc(C(CNC(=O)c2cccc3nc(N4CCCC4)ccc23)N2CCOCC2)cn1` (centres unmarked) [Compound 303] was 52.5 nM; that for `COc1ncc(C(CNC(=O)c2cccc3nc(N4CCN(C(C)C)CC4)ccc23)N2CCC(F)(F)CC2)cn1` (centres unmarked) [Compound 200] was 51.3 nM.
